Experimental data reported in patent US20150166625A1 (Sanofi, priority 2013, published 2015).

Tested on: female diabetic dbdb-mice
Assay: Glucose lowering in female diabetic dbdb-mice
Format: in vivo, mouse
Conditions: 100 μg/kg s.c.
Experimental: Female diabetic dbdb-mice (BKS.Cg-+Leprdb/+Leprdb/OlaHsd) 10 weeks of age at study start were used. Mice were habituated to feeding and housing conditions for at least 2 weeks. 7 days prior to study start, HbA1c were determined to allocate mice to groups, aiming to spread low, medium and high HbA1c-values and in consequence the group-means (n=8), as equally as possible. On the day of study, food was removed, directly before sampling for baseline glucose assessment (t=0 min). Immediately afterwards, compounds or vehicle (phosphor buffered saline, PBS) were administered subcutaneously, 100 μg/kg, 10 ml/kg. Afterwards, blood samples were drawn by tail tip incision at 15, 30, 60, 90, 120, 150, 180, 240, 360, 480 min and 24 h. Food was re-offered after the 480 min-sampling.
Data were analysed by 2-W-ANOVA on repeated measurements, followed by Dunnett's test as post-hoc assessment, level of significance p<0.05.

Substance	reduction of glucose compared to vehicle control (female db/db mice, from t=60 min until 240 min, p<0.05)	maximal effect, glucose reduction (non-fasted female db/db mice, baseline on average 28 mmol/l)
HSHGTFTSDLSKQLDEQLAKDFIEWLIAGGPSSGAPPPS-NH2 [SEQ ID NO: 10]	statistical significant reduction of glucose	
H-Aib-HGTFTSDLSKQLDEQLAKDFIEWLIAGGPSSGAPPPS-NH2 [SEQ ID NO: 9]		~12 mmol/L
